Reference: patent publication US10940139B2, “Compounds that interact with the Ras superfamily for the treatment of cancers, inflammatory diseases, rasopathies, and fibrotic disease” (Shy Therapeutics LLC, priority 2017, dated 2021)
Where two headings read alike, the source gives them in different places.

Columns and labels:
[1] = system: TNFα production in RAW 264.7 macrophage cell line; assay: Mouse TNF alpha quantification assay (LPS-stimulated macrophages, ELISA); format: cell-based; settings: RAW264.7, RAW 264.7 murine leukemia virus transformed macrophage cell lines, LPS stimulation, read-out: TNF-α % Inhibition at 30 μM
[2] = system: IL6 production in RAW 264.7 macrophage cell line; assay: Mouse IL6 quantification assay (LPS-stimulated macrophages, ELISA); format: cell-based; settings: RAW264.7, RAW 264.7 murine leukemia virus transformed macrophage cell lines, LPS stimulation, read-out: IL-6 % Inhibition at 30 μM
[3] = target: KRas G12D/Q61H double mutant (Homo sapiens (Human), UniProt P01116, G12D/Q61H); assay: Ras GTP binding domain inhibition assay (labeled GTP)
Sequence of KRas G12D/Q61H double mutant (P01116-2 other isoform, or with tags, fused parts or gaps G12D/Q61H): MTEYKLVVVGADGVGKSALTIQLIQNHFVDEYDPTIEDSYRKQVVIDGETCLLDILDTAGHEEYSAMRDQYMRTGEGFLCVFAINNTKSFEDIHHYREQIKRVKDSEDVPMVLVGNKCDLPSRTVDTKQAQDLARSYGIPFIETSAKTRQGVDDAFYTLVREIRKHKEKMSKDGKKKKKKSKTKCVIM
How it was run: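 Inhibition of labeled GTP binding is measured on immobilized His-KRas protein in Tris buffer pH 7.5 with 1 mM MgCl2 and 1 mM DTT.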

[4] = 20 μM compound, read-out: % Inhibition at 20 μM KRas G12D Q61H
[5] = at 20 μM, read-out: KRas G12D Q61H % Inh.

| SMILES | inhibition at 20 µM [3, 4] | further results |
| --- | --- | --- |
| O=C(CCc1cnn(-c2ccccc2)c1)Nc1nnc(-c2ccccc2)[nH]1 | – | inhibition at 30 µM [1]: 1 to 25%; inhibition at 30 µM [2]: 26 to 50% |
| CN(CCc1ccncc1)C(=O)c1csc2c(O)nc(N)nc12 | – | inhibition at 30 µM [1]: 0%; inhibition at 30 µM [2]: 1 to 25% |
| O=C(c1csc2c(O)nc(-c3ccccn3)nc12)N1CCC(c2ccccc2)CC1 | – | inhibition at 30 µM [1]: 51 to 75%; inhibition at 30 µM [2]: 76 to 100% |
| COC1CC(CNc2nc(-c3ccccn3)nc3scc(-c4ccccc4)c23)CCC1OCC(N)=O (centres unmarked) | – | inhibition at 30 µM [1]: 76 to 100%; inhibition at 30 µM [2]: 76 to 100% |
| OCCn1ncc2c1CCCC2Nc1nc(-c2ccccn2)nc2scc(-c3ccccc3)c12 (centres unmarked) | – | inhibition at 30 µM [1]: 26 to 50%; inhibition at 30 µM [2]: 26 to 50% |
| CC(CC(=O)N1CCOCC1)c1nc(-c2ccccn2)nc2scc(-c3ccccc3)c12 (centres unmarked) | – | inhibition at 30 µM [1]: 1 to 25%; inhibition at 30 µM [2]: 1 to 25% |
| COc1cncc(CCNC(=O)c2csc3nc(-c4ccccn4)nc(N4CCOCC4)c23)c1 | – | inhibition at 30 µM [1]: 0%; inhibition at 30 µM [2]: 1 to 25% |
| O=C(c1csc2c(O)nc(-c3cccnc3)nc12)N1CCNC(Cc2cccc(F)c2)C1 (centres unmarked) | – | inhibition at 30 µM [1]: 1 to 25%; inhibition at 30 µM [2]: 26 to 50% |
| CC(C)Oc1ccc(-c2csc3c(O)nc(-c4nccn4C)nc23)cn1 | – | inhibition at 30 µM [1]: 76 to 100%; inhibition at 30 µM [2]: 76 to 100% |
| CC(C)NC(=O)Nc1cccc(C(=O)Nc2nnc(-c3ccccn3)[nH]2)c1 [drawing 1926] | – | inhibition at 30 µM [1]: 1 to 25%; inhibition at 30 µM [2]: 0% |
| O=C(Cc1ccc(-n2cnnn2)cc1)Nc1nnc(-c2ccccn2)[nH]1 [drawing 1927] | – | inhibition at 30 µM [1]: 1 to 25%; inhibition at 30 µM [2]: 0% |
| COc1cccc(CCC(=O)Nc2nnc(-c3ccccn3)[nH]2)c1 [drawing 1928] | – | inhibition at 30 µM [1]: 1 to 25%; inhibition at 30 µM [2]: 0% |
| COc1ccc(CCC(=O)Nc2nnc(-c3ccccn3)[nH]2)cc1F [drawing 1929] | – | inhibition at 30 µM [1]: 26 to 50%; inhibition at 30 µM [2]: 1 to 25% |
| O=C(Nc1nnc(-c2ccccn2)[nH]1)c1ccc2c(c1)CCO2 [drawing 1930] | – | inhibition at 30 µM [1]: 0%; inhibition at 30 µM [2]: 1 to 25% |
| O=C(Cc1c[nH]c2ccccc12)Nc1nnc(-c2ccccn2)[nH]1 [drawing 1931] | – | inhibition at 30 µM [1]: 1 to 25%; inhibition at 30 µM [2]: 26 to 50% |
| CC1CCN(C(=O)c2csc3c(O)nc(-c4ccccn4)nc23)CC1 [drawing 2674] | 51 to 75% | – |
| CN(CCc1ccncc1)C(=O)c1csc2c(O)nc(-c3ccccn3)nc12 [drawing 2688] | 25 to 50% | – |
| O=C(c1csc2c(O)nc(-c3ccccn3)nc12)N1CCc2ccccc2CC1 [drawing 2690] | 25 to 50% | – |
| Oc1nc(-c2ccccn2)nc2[nH]cnc12 [drawing 2696] | 25 to 50% | – |
| COc1ccc(COCC(=O)Nc2ccnc(-c3ccccn3)n2)cn1 [drawing 2699] | 25 to 50% | – |
| N#Cc1ccc(CC(=O)Nc2ccnc(-c3ccccn3)n2)cc1 [drawing 2700] | 25 to 50% | – |
| c1ccc(-c2nc(N3CCOCC3)c3ccsc3n2)nc1 [drawing 2702] | 51 to 75% | – |

| SMILES | inhibition at 20 µM [3, 4] | further results |
| --- | --- | --- |
| CCN(CC)CCC(C)Nc1nc(-c2ccccn2)nc2sccc12 (centres unmarked) [drawing 2706] | 25 to 50% | – |
| Clc1csc2nc(-c3ccccn3)nc(N3CCOCC3)c12 [drawing 2707] | 1 to 25% | – |
| Oc1nc(-c2ccccn2)nc2c(C3CCNCC3)csc12 [drawing 2711] | 51 to 75% | – |
| COc1ccccc1N1CCN(C(=O)c2csc3c(O)nc(-c4ccccn4)nc23)CC1 [drawing 2712] | 25 to 50% | – |
| O=C(c1csc2c(O)nc(-c3ccccn3)nc12)N1CCN(c2ccccc2F)CC1 [drawing 2721] | 25 to 50% | – |
| N#Cc1ccccc1N1CCN(C(=O)c2csc3c(O)nc(-c4ccccn4)nc23)CC1 [drawing 2722] | 1 to 25% | – |
| COc1ccc(CN2CCN(C(=O)c3csc4c(O)nc(-c5ccccn5)nc34)CC2)cc1 [drawing 2725] | 25 to 50% | – |
| O=C(NCCc1cnc(O)nc1)c1csc2nc(-c3ccccn3)nc(N3CCOCC3)c12 [drawing 2810] | 1 to 25% | – |
| Cc1cnc(-c2ccccn2)nc1NC(=O)COCc1ccnc(O)c1 [drawing 2816] | 25 to 50% | – |
| N#Cc1ccc(CC(=O)Nc2nc(-c3ccccn3)nc3sccc23)cc1 [drawing 2817] | 1 to 25% | – |
| N#Cc1csc2nc(-c3ccccn3)nc(N3CCOCC3)c12 [drawing 2819] | 25 to 50% | – |
| Nc1nc(-c2ccccn2)nc2sccc12 [drawing 2821] | 25 to 50% | – |
| COC(=O)c1csc2c(O)nc(-c3ccccn3)nc12 [drawing 2823] | 1 to 25% | – |
| COc1cccc(OCCn2c(CN3CCCCC3)nc3ccccc32)c1 [drawing 3033] | – | % Inhibition at 20 μM KRas G12D Q61H ([3]; 20 μM compound): B (B = 25-50% inhibition) |
| O=C(Cc1ccc2c(c1)OCCO2)Nc1nc(-c2ccccn2)cs1 [drawing 3246] | – | inhibition at 20 µM ([3]; 20 μM compound, KRas G12D/Q61H double mutant, read-out: % Inhibition at 20 μM of K-Ras mutant and wild-type protein, KRas G12D Q61H): 1 to 25% |
| O=C(Cc1ccc2c(c1)OCCO2)Nc1nc(-c2ccccn2)cs1 [drawing 3247] | – | % Inhibition at 20 μM of K-Ras mutant and wild-type protein, KRas G12D Q61H ([3]; 20 μM compound, KRas G12D/Q61H double mutant): A (1-25% inhibition) |
| Oc1nc(-c2ccccn2)nc2c(-c3cnc4ccccc4c3)csc12 [drawing 3780] | – | inhibition at 20 µM [3, 5]: 25 to 50% |
| Cc1cc2nc(-c3ccccn3)nc(O)c2s1 [drawing 3791] | – | inhibition at 20 µM [3, 5]: 51 to 75% |
| COC(=O)c1c(C)sc2nc(-c3ccccn3)nc(N)c12 [drawing 3804] | – | inhibition at 20 µM [3, 5]: 51 to 75% |
| COc1cnc(CNC(=O)c2c(C)sc3c(O)nc(-c4ccccn4)nc23)[nH]c1=O [drawing 3841] | – | inhibition at 20 µM [3, 5]: 0% |
| O=C(c1csc2c(O)nc(-c3ccccn3)nc12)N1CCNC(c2ccc(Cl)cc2)C1 (centres unmarked) [drawing 3843] | – | inhibition at 20 µM [3, 5]: 25 to 50% |

Further lines, with some results ahead:

| inhibition at 20 µM [3, 4] | SMILES | further results |
| --- | --- | --- |
| 1 to 25% | Nc1nc(O)c2scc(C(=O)NCCc3cccnc3)c2n1 [drawing 2670] | – |
| 1 to 25% | Nc1nc(O)c2scc(C(=O)N3CCc4ccccc4CC3)c2n1 [drawing 2671] | – |
| 25 to 50% | COc1cc2c(cc1OC)CCN(C(=O)c1csc3c(O)nc(N)nc13)CC2 [drawing 2672] | – |
| 25 to 50% | COCC1CCN(C(=O)c2csc3c(O)nc(-c4ccccn4)nc23)CC1 [drawing 2675] | – |
| 51 to 75% | CCOCCC1CCN(C(=O)c2csc3c(O)nc(-c4ccccn4)nc23)CC1 [drawing 2676] | – |
| 51 to 75% | COCCCC1CCN(C(=O)c2csc3c(O)nc(-c4ccccn4)nc23)CC1 [drawing 2677] | – |
| 25 to 50% | O=C(c1csc2c(O)nc(-c3ccccn3)nc12)N1CCC(N2CCOCC2)CC1 [drawing 2678] | – |
| 51 to 75% | CCOC(=O)NC1CCN(C(=O)c2csc3c(O)nc(-c4ccccn4)nc23)CC1 [drawing 2685] | – |
| 51 to 75% | COCCOCCN(C)C(=O)c1csc2c(O)nc(-c3ccccn3)nc12 [drawing 2686] | – |
| 51 to 75% | COc1cc2c(cc1OC)CCN(C(=O)c1csc3c(O)nc(-c4ccccn4)nc13)CC2 [drawing 2691] | – |
| 1 to 25% | Nc1nc(O)c2scc(-c3ccccc3)c2n1 [drawing 2692] | – |
| 1 to 25% | Nc1nc(O)c2scc(-c3ccccc3Cl)c2n1 [drawing 2693] | – |
| 25 to 50% | Oc1nc(-c2ccccn2)nc2c1ncn2-c1ccccn1 [drawing 2698] | – |
| 1 to 25% | Brc1csc2nc(-c3ccccn3)nc(N3CCOCC3)c12 [drawing 2701] | – |
| 51 to 75% | O=C(c1csc2c(O)nc(-c3ccccn3)nc12)N1CCN(c2ccccc2Cl)CC1 [drawing 2718] | – |
| 25 to 50% | O=C(c1csc2c(O)nc(-c3ccccn3)nc12)N1CCN(c2cccc(Cl)c2)CC1 [drawing 2719] | – |

| inhibition at 20 µM [3, 4] | SMILES | further results |
| --- | --- | --- |
| 25 to 50% | COc1cccc(C2CN(C(=O)c3csc4c(O)nc(-c5ccccn5)nc34)CCO2)c1 (centres unmarked) [drawing 2729] | – |
| 25 to 50% | O=C(c1csc2c(O)nc(-c3ccccn3)nc12)N1CCOC(c2ccc(Cl)cc2)C1 (centres unmarked) [drawing 2730] | – |
| 25 to 50% | O=C(c1csc2c(O)nc(-c3ccccn3)nc12)N1CCNC(c2cccc(F)c2)C1 (centres unmarked) [drawing 2737] | – |
| 1 to 25% | FC(F)(F)c1csc2nc(-c3ccccn3)nc(N3CCOCC3)c12 [drawing 2741] | – |
| 1 to 25% | O=C(NCCc1ccc(O)nc1)c1csc2nc(-c3ccccn3)nc(N3CCOCC3)c12 [drawing 2809] | – |
| 1 to 25% | CS(=O)(=O)CCCNC(=O)c1csc2nc(-c3ccccn3)nc(N3CCOCC3)c12 [drawing 2811] | – |
| 1 to 25% | COCCN(CCOC)c1nc(-c2ccccn2)nc2scc(C(=O)NCCc3cnc(O)nc3)c12 [drawing 2812] | – |
| 25 to 50% | COc1cc(COCC(=O)Nc2ccnc(-c3ccccn3)n2)ccn1 [drawing 2813] | – |
| 1 to 25% | Cc1cnc(-c2ccccn2)nc1NC(=O)Cc1ccc(C#N)cc1 [drawing 2814] | – |
| 25 to 50% | Cc1cnc(-c2ccccn2)nc1NC(=O)COCc1ccc(C#N)cc1 [drawing 2815] | – |
| 1 to 25% | COc1ccc2c(c1)CCC2C(=O)Nc1nc(-c2ccccn2)nc2sccc12 (centres unmarked) [drawing 2818] | – |
| 1 to 25% | COc1cc(N2CCN(C(=O)c3csc4c(O)nc(-c5ccccn5)nc34)CC2)ccc1O [drawing 2820] | – |
| 1 to 25% | Nc1nc(-c2ccccn2)nc2scc(-c3ccccc3)c12 [drawing 2822] | – |
| 1 to 25% | COc1cnc(CNC(=O)Cn2cnc3nc(-c4ccccn4)nc(N4CCOCC4)c32)[nH]c1=O [drawing 2824] | – |
| 25 to 50% | COc1cccc(OCCn2c(CN3CCCCC3)nc3ccccc32)c1 [drawing 3032] | – |
